Experiments:
[1] = tested on: human glioma cells (GBM528); experiment: GC/MS sterol profiling in human glioma cell line; type: cell-based; conditions: 24 h
[2] = tested on: LPC-lesioned spinal cord; conditions: earlier work; cited from earlier work
[3] = tested on: LPC-lesioned spinal cord; experiment: LPC focal demyelination of spinal cord, remyelination; type: in vivo, mouse; conditions: ifenprodil 10 mg per kg, tamoxifen 2 mg per kg, daily intraperitoneal, 8 days
[4] = tested on: OPCs; experiment: GC/MS-based sterol profiling in OPCs; type: cell-based, mouse; conditions: GC/MS, 24 h treatment (siRNA 96 h)
[5] = molecular target: T1, EBP (Mus musculus, UniProt P70245); experiment: EBP enzymatic assay (GC/MS); type: biochemical; conditions: 10 μM, zymostenol 25 μM
T1 construct: active EBP was obtained from mouse microsomes; from tissue
T1 sequence (P70245 1-230): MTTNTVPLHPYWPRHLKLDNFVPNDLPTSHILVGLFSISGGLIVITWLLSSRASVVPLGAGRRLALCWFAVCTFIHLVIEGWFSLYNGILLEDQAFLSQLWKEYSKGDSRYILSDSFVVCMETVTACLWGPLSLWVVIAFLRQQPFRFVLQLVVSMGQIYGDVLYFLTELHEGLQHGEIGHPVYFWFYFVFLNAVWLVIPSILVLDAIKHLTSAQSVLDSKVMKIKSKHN

[6] = tested on: mouse primary OPCs; experiment: MBP+ oligodendrocyte formation from mouse primary OPCs; type: cell-based; conditions: 72 h
Experimental: To obtain mouse primary OPCs, whole brain was removed from post-natal day 2 pups anesthetized on ice. Brains were placed in cold DMEM/F12, and the cortices were isolated and the meninges were removed. The cortices were manually chopped and processed with the Tumor Dissociation Kit (Miltenyi) and incubated at 37° C. for 10 minutes. The cell suspension was filtered through a […] filter and centrifuged at 200×g for 4 minutes at room temperature. The cells were washed in DMEM/F12, re-centrifuged and plated in poly-Ornithine and Laminin-treated flasks containing DMEM/P12 supplemented with N2 Max, B27 (ThermoFisher), 20 ng/mL FGF, and 20 ng/mL PDGF. […] were passaged once prior to treatment. Media was changed every 48 hours.
Then, 40,000 cells were seeded per well in differentiation medium and allowed to attach for 30 min before addition of drug. For dose-response testing of all molecules except sterols, a 1000× compound stock in dimethyl sulphoxide (DMSO) was added to assay plates with 0.1 μL solid pin multi-blot replicators (V & P Scientific; VP 409), resulting in a final primary screening concentration of 1×. Sterols were added to cells as an ethanol solution (0.2% final ethanol concentration). […] Cells were incubated under standard conditions (37° C., 5% CO2) for 3 days and fixed with 4% paraformaldehyde (PFA) in phosphate buffered saline (PBS) for 20 min. […]

[7] = tested on: mouse epiblast stem cell-derived OPCs; experiment: In vitro phenotypic screening of OPCs (MBP+ oligodendrocytes at 72 h); type: cell-based
Experimental: Then, 40,000 cells were seeded per well in differentiation medium and allowed to attach for 30 min before addition of drug. […] Sterols were added to cells as an ethanol solution (0.2% final ethanol concentration). […] Cells were incubated under standard conditions (37° C., 5% CO2) for 3 days and fixed with 4% paraformaldehyde (PFA) in phosphate buffered saline (PBS) for 20 min. Fixed plates were washed with PBS (200 μL per well) twice, permeabilized with 0.1% Triton X-100 and blocked with 10% donkey serum (v/v) in PBS for 40 min. […] Nuclei were visualized by DAPI staining (Sigma; 1 μg/ml).

Row | Structure (SMILES) | accumulation of sterol intermediates in human glioma cell line [1] | remyelination in mouse models of demyelination (previously established) [2] | remyelination of LPC lesion [3] | sterol levels / sterol intermediate accumulation in OPCs [4] | inhibition of EBP enzymatic activity [5] | oligodendrocyte formation from mouse primary OPCs [6] | formation of MBP+ oligodendrocytes from OPCs [7]
1 | Clc1ccc(COC(Cn2ccnc2)c2ccc(Cl)cc2Cl)c(Cl)c1 (stereo not drawn) [miconazole, Miconazole] | caused accumulation of the expected sterol intermediates | enhances remyelination in mouse models of demyelination |  |  |  |  | 
2 | CC(C(O)c1ccc(O)cc1)N1CCC(Cc2ccccc2)CC1 (stereo not drawn) [ifenprodil, Ifenprodil] | caused accumulation of the expected sterol intermediates |  | remyelination was widespread throughout the lesion |  |  |  | 
3 | CC/C(=C(\c1ccccc1)c1ccc(OCCN(C)C)cc1)c1ccccc1 [tamoxifen, Tamoxifen] | caused accumulation of the expected sterol intermediates |  | remyelination was widespread throughout the lesion | induced accumulation of zymostenol and zymosterol and decreased basal sterol levels | clear inhibition |  | 
4 | Cc1cc(C)c(CNC(=O)c2cc(-c3ccc(CN4CCOCC4)cc3)cc3c2cnn3C2CCCC2)c(=O)[nH]1 [EPZ005687] |  |  |  | uniquely caused accumulation of zymosterol and zymostenol in OPCs | directly inhibiting EBP enzymatic activity | enhanced oligodendrocyte formation | enhanced oligodendrocyte formation
